{"source": "patent US7824853B2", "about": "“Complex comprising at least two biospecific elements separated by a nucleic acid linker e.g. for identification of drug delivery candidates combinatorial library of such complexes” (Avaris AB, priority 2002, dated 2010)", "tested_on": "peripheral blood mononuclear cells, population with the characteristics of monocytes", "assay": "Monocyte binding assay (FACS, binding and uptake of fluorescent complexes)", "type": "cell-based", "conditions": "monocytic population; incubated one hour at +37° C., then trypsinisation; 6-FAM labelled 48-mer oligo", "text": "Oligonucleotides (48-mers) with recognition sites for 2 different peptide-nucleic-acid sequences and with a fluorescent label were designed and manufactured. Each binding site corresponds to 15 nucleotides. The 48-mer oligos contain in the 5′ end the fluorescent label, 6-FAM, followed by three thymidine residues as spacer. There is a single central target site (GGAAGGGCCGAGCGC, Seq. Id. No. 2) surrounded by two identical adjacent target sites (CAATCGGAACGGATC, Seq. Id. No. 1).\nPeptide-nucleic-acid-linker3-peptide (=ligand) fusions were generated as described before (Brandén L J, Mohamed A J, Smith C I E. A peptide nucleic acid-nuclear localisation signal fusion that mediates nuclear transport of DNA. Nature Biotechnol 17: 784-787, 1999). […]\nPeptide-nucleic-acid-linker3-peptide (=ligand) fusions were hybridised to oligonucleotides in order to generate the novel biomolecular complexes. […] Following the incubation cells were analysed in a fluorescent activated cell sorter (FACS SCAN, Becton Dickinson, Mountain View, Calif.).", "data": [{"sequence": "TAT (FE2): PNA-linker3-HIV TAT peptide (grkkrrqrrrppqc) fusion hybridised to central target site Seq. Id. No. 2 of the 48-mer oligo", "values": [{"measurement": "Percentage of fluorescent cells", "result": 0.93, "unit": "%"}]}]}
